Paper PMC12298648, “An Evaluation of the Cytotoxicity and Safety Profile of Usnic Acid for a Broad Panel of Human Cancers and Normal Cells with Respect to Its Enantiospecificity” (Molecules, 2025)
Converted amounts (≈) assume the structure as drawn.

Assays:
FTC133 = assay: MTT viability assay, FTC133 follicular thyroid carcinoma cells; type: cell-based, human; details: for Cell viability: FTC-133, 24 h; for IC50: Homo sapiens, FTC-133
Excerpt: (§1) Cell lines of different origins were used in the study and grouped as follows: prostate panel (human prostate carcinomas: DU145, derived from metastatic site: brain; grade IV PC3, derived from metastatic site: bone; LNCaP, derived from the metastatic site: lymph node; prostate epithelial, PNT2), colon panel (colorectal adenocarcinomas: HT29, originating from a primary tumor; Duke’s type C DLD-1, with the potential to lymph node metastasis; highly metastatic HCT116; colon epithelial cells CCD 841 CoN), thyroid panel (follicular thyroid carcinoma FTC133, anaplastic thyroid carcinoma 8505C, papillary thyroid carcinoma TPC-1, normal thyroid follicular epithelial Nthy-ori 3–1), breast panel (ER-positive breast adenocarcinoma MCF7, ER-negative breast adenocarcinoma MDA-MB-231, breast epithelial MCF10A), brain panel (neuroblastoma SH-SY5Y, glioblastoma U-87 MG, murine astrocytes C8D1A). All cell lines were purchased from Merck (Darmstadt, Germany).
(§2) Cells were grown under standard conditions (37 °C, 5% CO2) and culture media (DMEM/F12 for PNT2, PC3, FTC133, 8505 C, MDA-MB-231, TPC-1; DMEM Low Glucose for DU145; DMEM High Glucose for HCT116, DLD-1, SH-SY5Y, U87MG, C8D1A; MEM with NEAA for MCF7; MEM for CCD 841 CoN; McCoy’s for HT29; RPMI1640 with sodium pyruvate for LNCaP; DMEM/F12 with 20 ng/mL epidermal growth factor (EGF), 10 μg/mL insulin, 0.5 μg/mL hydrocortisone, 100 ng/mL cholera toxin) for MCF10A), supplemented with 10% fetal bovine serum (FBS) or 5% donor horse serum for MCF10A, and 1% antibiotics solution (10,000 U penicillin and 10 mg streptomycin/mL). The tested substances were prepared as 10 mg/mL stock solutions in DMSO and further diluted in the culture media to the working concentrations. Cells were treated with UA enantiomers at the concentration range of 0–50 µg/mL. The influence of DMSO on cell viability was also examined, with the final concentration […], and no toxic effect was noted.
(§3) The cells were seeded onto 96-well plates at a density of 1.5 × 10^4 cells/well. After 24 h UA enantiomers were added. Cell viability was determined after 24, 48, and 72 h by the MTT assay, as described previously. Doxorubicin was used as a reference cytostatic drug. All analyses were performed in triplicate; cell viability was expressed as % of control, untreated cells (mean ± SD), and IC50 values (concentration at which cell viability is inhibited by 50%), if possible.
(§4) The selectivity index (SI) was calculated, if possible, by dividing the IC50 value obtained for non-cancerous cells line by the IC50 values obtained for appropriate cancer cell line, as described previously. […] The values above 3 indicate good selectivity.

C8D1A = assay: MTT viability assay, normal astrocytes C8D1A; type: cell-based, murine; details: C8D1A, 24 h
Excerpt: as §1, §2, §3

SH-SY5Y = assay: MTT viability assay, neuroblastoma SH-SY5Y cells; type: cell-based, human; details: SHSY5Y, 24 h
Excerpt: as §1, §2, §3

TPC-1 = assay: MTT viability assay, TPC-1 papillary thyroid carcinoma cells; type: cell-based, human; details: for IC50: Homo sapiens, TPC1; for Cell viability: TPC-1, 24 h
Excerpt: as §1, §2, §3, §4

MDA-MB-231 = assay: MTT viability assay, MDA-MB-231 breast cancer cells; type: cell-based, human; details: for IC50: Homo sapiens; for Cell viability: MDA-MB-231, 24 h
Excerpt: as §1, §2, §3, §4

HCT116 = assay: MTT viability assay, HCT116 colon cancer cells; type: cell-based, human; details: for Cell viability: HCT116, 24 h; for IC50: Homo sapiens, HCT-116
Excerpt: as §1, §2, §3

PC3 = assay: MTT viability assay, PC3 prostate cancer cells; type: cell-based, human; details: for IC50: Homo sapiens, PC-3; for Cell viability: PC3, 24 h
Excerpt: as §1, §2, §3, §4

U87MG = assay: MTT viability assay, glioblastoma U87MG cells; type: cell-based, human; details: 24 h
Excerpt: as §1, §2, §3

MCF10A = assay: MTT viability assay, normal breast epithelial cells; type: cell-based, human; details: for IC50: Homo sapiens, MCF-10A, MCF10A normal cells; for Cell viability: MCF10A, 24 h
Excerpt: as §1, §2, §3

Structure (SMILES): CC(=O)C1=C(O)C=C2Oc3c(C(C)=O)c(O)c(C)c(O)c3[C@]2(C)C1=O [UA(−), (−)-usnic acid]
- Cell viability (FTC133; 2.5 µg/mL): 108.51 % of control
- Cell viability (FTC133; 5 µg/mL): 106.14 % of control
- Cell viability (FTC133; 10 µg/mL): 87.63 % of control
- Cell viability (FTC133; 20 µg/mL): 89.56 % of control
- Cell viability (FTC133; 30 µg/mL): 93.33 % of control
- Cell viability (FTC133; 40 µg/mL): 86.67 % of control
- Cell viability (FTC133; 50 µg/mL): 83.25 % of control
- IC50 (FTC133; FTC133, 48 h): > 50 µg/mL
- IC50 (FTC133; FTC133, 72 h): 35.3 µg/mL (≈ 103 µM)
- selectivity index (SI) (FTC133; IC50 Nthy ori 3-1 / IC50 FTC133, 72 h): 0.83
- Cell viability (C8D1A; 2.5 µg/mL): 100.83 % of control
- Cell viability (C8D1A; 5 µg/mL): 99.17 % of control
- Cell viability (C8D1A; 10 µg/mL): 95.67 % of control
- Cell viability (C8D1A; 20 µg/mL): 96.00 % of control
- Cell viability (C8D1A; 30 µg/mL): 88.42 % of control
- Cell viability (C8D1A; 40 µg/mL): 90.58 % of control
- Cell viability (C8D1A; 50 µg/mL): 104.75 % of control
- Cell viability (SH-SY5Y; 2.5 µg/mL): 96.79 % of control
- Cell viability (SH-SY5Y; 5 µg/mL): 99.17 % of control
- Cell viability (SH-SY5Y; 10 µg/mL): 98.10 % of control
- Cell viability (SH-SY5Y; 20 µg/mL): 96.67 % of control
- Cell viability (SH-SY5Y; 30 µg/mL): 92.62 % of control
- Cell viability (SH-SY5Y; 40 µg/mL): 98.57 % of control
- Cell viability (SH-SY5Y; 50 µg/mL): 99.40 % of control
- IC50 (TPC-1; TPC-1, 48 h): > 50 µg/mL
- IC50 (TPC-1; TPC-1, 72 h): 39.2 µg/mL (≈ 114 µM)
- selectivity index (SI) (TPC-1; IC50 Nthy ori 3-1 / IC50 TPC-1, 72 h): 0.74
- Cell viability (TPC-1; 2.5 µg/mL): 96.85 % of control
- Cell viability (TPC-1; 5 µg/mL): 104.40 % of control
- Cell viability (TPC-1; 10 µg/mL): 96.79 % of control
- Cell viability (TPC-1; 20 µg/mL): 93.49 % of control
- Cell viability (TPC-1; 30 µg/mL): 91.95 % of control
- Cell viability (TPC-1; 40 µg/mL): 92.26 % of control
- Cell viability (TPC-1; 50 µg/mL): 92.38 % of control
- IC50 (MDA-MB-231; MDA-MB-231, 48 h): 41.4 µg/mL (≈ 120 µM)
- IC50 (MDA-MB-231; MDA-MB-231, 72 h): 20.2 µg/mL (≈ 58.7 µM)
- Cell viability (MDA-MB-231; 2.5 µg/mL): 96.79 % of control
- Cell viability (MDA-MB-231; 5 µg/mL): 92.06 % of control
- Cell viability (MDA-MB-231; 10 µg/mL): 88.24 % of control
- Cell viability (MDA-MB-231; 20 µg/mL): 85.58 % of control
- Cell viability (MDA-MB-231; 30 µg/mL): 74.48 % of control
- Cell viability (MDA-MB-231; 40 µg/mL): 68.12 % of control
- Cell viability (MDA-MB-231; 50 µg/mL): 70.55 % of control
- Cell viability (HCT116; 2.5 µg/mL): 112.65 % of control
- Cell viability (HCT116; 5 µg/mL): 108.16 % of control
- Cell viability (HCT116; 10 µg/mL): 96.26 % of control
- Cell viability (HCT116; 20 µg/mL): 84.97 % of control
- Cell viability (HCT116; 30 µg/mL): 72.86 % of control
- Cell viability (HCT116; 40 µg/mL): 71.90 % of control
- Cell viability (HCT116; 50 µg/mL): 73.33 % of control
- IC50 (HCT116; HCT116, 48 h): 26.2 µg/mL (≈ 76.1 µM)
- IC50 (HCT116; HCT116, 72 h): 10.7 µg/mL (≈ 31.1 µM)
- IC50 (PC3; PC3, 48 h): 37.8 µg/mL (≈ 110 µM)
- IC50 (PC3; PC3, 72 h): 34.8 µg/mL (≈ 101 µM)
- selectivity index (SI) (PC3; IC50 PNT2 / IC50 PC3, 48 h): 0.93
- selectivity index (SI) (PC3; IC50 PNT2 / IC50 PC3, 72 h): 0.79
- Cell viability (PC3; 2.5 µg/mL): 102.94 % of control
- Cell viability (PC3; 5 µg/mL): 94.68 % of control
- Cell viability (PC3; 10 µg/mL): 91.59 % of control
- Cell viability (PC3; 20 µg/mL): 89.10 % of control
- Cell viability (PC3; 30 µg/mL): 76.52 % of control
- Cell viability (PC3; 40 µg/mL): 69.15 % of control
- Cell viability (PC3; 50 µg/mL): 68.91 % of control
- Cell viability (U87MG; 2.5 µg/mL): 102.34 % of control
- Cell viability (U87MG; 5 µg/mL): 102.19 % of control
- Cell viability (U87MG; 10 µg/mL): 101.69 % of control
- Cell viability (U87MG; 20 µg/mL): 101.59 % of control
- Cell viability (U87MG; 30 µg/mL): 111.54 % of control
- Cell viability (U87MG; 40 µg/mL): 106.02 % of control
- Cell viability (U87MG; 50 µg/mL): 98.56 % of control
- IC50 (MCF10A; 48 h): > 50 µg/mL
- IC50 (MCF10A; 72 h): > 50 µg/mL
- Cell viability (MCF10A; 2.5 µg/mL): 102.83 % of control
- Cell viability (MCF10A; 5 µg/mL): 100.30 % of control
- Cell viability (MCF10A; 10 µg/mL): 101.52 % of control
- Cell viability (MCF10A; 20 µg/mL): 98.59 % of control
- Cell viability (MCF10A; 30 µg/mL): 100.10 % of control
- Cell viability (MCF10A; 40 µg/mL): 103.54 % of control
- Cell viability (MCF10A; 50 µg/mL): 99.39 % of control
